From patent publication US11891387B2, “Monoacylglycerol lipase modulators” (Janssen Pharmaceutica NV, priority 2020, dated 2024)

Each compound was assayed against human MGL from HeLa cells (Homo sapiens (Human), UniProt Q99685) (assay: MGL in vitro activity assay: cleavage of [glycerol-1,3-3H]-oleyl glycerol, activated carbon filtration). Details: 300 nM [Glycerol-1,3-3H]-oleyl glycerol, endogenously expressed MGL from HeLa cells, one hour incubation.
Assay type: biochemical
Outline: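 Endogenous human MGL from HeLa cells or homogenates was incubated with compound and 300 nM [glycerol-1,3-3H]-oleyl glycerol for one hour. Released [3H]-glycerol passing an activated carbon filter was counted as the measure of activity. Screening used 10 μM compound, with IC50 top concentration set empirically.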

Chain of human MGL from HeLa cells (Q99685 whole entry): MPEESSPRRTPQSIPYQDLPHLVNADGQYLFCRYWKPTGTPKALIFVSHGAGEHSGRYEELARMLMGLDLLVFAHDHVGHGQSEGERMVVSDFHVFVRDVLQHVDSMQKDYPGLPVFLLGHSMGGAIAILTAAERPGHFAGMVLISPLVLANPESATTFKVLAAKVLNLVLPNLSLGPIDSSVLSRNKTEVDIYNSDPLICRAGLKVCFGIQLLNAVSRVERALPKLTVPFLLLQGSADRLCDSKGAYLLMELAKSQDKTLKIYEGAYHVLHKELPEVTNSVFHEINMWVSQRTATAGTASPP

SMILES	IC50
CCn1nc(C(F)(F)F)cc1-c1c2c(nn1C)[C@@H]1CCC[C@H](C2)N1C(=O)c1cccc(C)c1 [Example 78, ((5R,9S)-3-(1-Ethyl-3-(trifluoromethyl)-1H-pyrazol-5-yl)-2-methyl-4,5,6,7,8,9-hexahydro-2H-5,9-epiminocycloocta[c]pyrazol-10-yl)(m-tolyl)methanone]	0.16 µM
COc1cccc(C(=O)N2[C@@H]3CCC[C@H]2c2nn(C)c(-c4cc(C(F)(F)F)n(C)n4)c2C3)c1C [Example 79, (3-Methoxy-2-methylphenyl)((5R,9S)-2-methyl-3-(1-methyl-5-(trifluoromethyl)-1H-pyrazol-3-yl)-4,5,6,7,8,9-hexahydro-2H-5,9-epiminocycloocta[c]pyrazol-10-yl)methanone]	0.016 µM
Cn1nc(C(F)(F)F)cc1-c1c2c(nn1C)[C@@H]1CCC[C@H](C2)N1C(=O)c1ccc2ncccc2c1 [Example 80, ((5R,9S)-2-Methyl-3-(1-methyl-3-(trifluoromethyl)-1H-pyrazol-5-yl)-4,5,6,7,8,9-hexahydro-2H-5,9-epiminocycloocta[c]pyrazol-10-yl)(quinolin-6-yl)methanone]	0.022 µM
Cn1nc(C(F)(F)F)cc1-c1c2c(nn1C)[C@@H]1CCC[C@H](C2)N1C(=O)c1n[nH]c2ncc(F)cc12 [Example 81, (5-Fluoro-1H-pyrazolo[3,4-b]pyridin-3-yl)((5R,9S)-2-methyl-3-(1-methyl-3-(trifluoromethyl)-1H-pyrazol-5-yl)-4,5,6,7,8,9-hexahydro-2H-5,9-epiminocycloocta[c]pyrazol-10-yl)methanone]	0.1 µM
Cc1ccc2c(C(=O)N3[C@@H]4CCC[C@H]3c3nn(C)c(-c5cc(C(F)(F)F)nn5C)c3C4)nccc2n1 [Example 82, (2-Methyl-1,6-naphthyridin-5-yl)((5R,9S)-2-methyl-3-(1-methyl-3-(trifluoromethyl)-1H-pyrazol-5-yl)-4,5,6,7,8,9-hexahydro-2H-5,9-epiminocycloocta[c]pyrazol-10-yl)methanone]	0.074 µM
Cn1nc(C(F)(F)F)cc1-c1c2c(nn1C)[C@@H]1CCC[C@H](C2)N1C(=O)c1cnc2cccc(F)c2c1 [Example 83, (5-Fluoroquinolin-3-yl)((5R,9S)-2-methyl-3-(1-methyl-3-(trifluoromethyl)-1H-pyrazol-5-yl)-4,5,6,7,8,9-hexahydro-2H-5,9-epiminocycloocta[c]pyrazol-10-yl)methanone]	0.04 µM
Cn1nc(C(F)(F)F)cc1-c1c2c(nn1C)[C@@H]1CCC[C@H](C2)N1C(=O)c1noc2ccccc12 [Example 84, Benzo[d]isoxazol-3-yl((5R,9S)-2-methyl-3-(1-methyl-3-(trifluoromethyl)-1H-pyrazol-5-yl)-4,5,6,7,8,9-hexahydro-2H-5,9-epiminocycloocta[c]pyrazol-10-yl)methanone]	0.0051 µM
Cn1nc(C(F)(F)F)cc1-c1c2c(nn1C)[C@@H]1CCC[C@H](C2)N1C(=O)c1nn(C)c2ncccc12 [Example 85, (1-Methyl-1H-pyrazolo[3,4-b]pyridin-3-yl)((5R,9S)-2-methyl-3-(1-methyl-3-(trifluoromethyl)-1H-pyrazol-5-yl)-4,5,6,7,8,9-hexahydro-2H-5,9-epiminocycloocta[c]pyrazol-10-yl)methanone]	0.064 µM
Cn1nc(C(F)(F)F)cc1-c1c2c(nn1C)[C@@H]1CCC[C@H](C2)N1C(=O)c1nn(C)c2ccc(F)cc12 [Example 86, (5-Fluoro-1-methyl-1H-indazol-3-yl)((5R,9S)-2-methyl-3-(1-methyl-3-(trifluoromethyl)-1H-pyrazol-5-yl)-4,5,6,7,8,9-hexahydro-2H-5,9-epiminocycloocta[c]pyrazol-10-yl)methanone]	0.018 µM
Cn1nc(-c2c3c(nn2C)[C@@H]2CCC[C@H](C3)N2C(=O)c2ccc3ncccc3c2)cc1C(F)(F)F [Example 87, ((5R,9S)-2-Methyl-3-(1-methyl-5-(trifluoromethyl)-1H-pyrazol-3-yl)-4,5,6,7,8,9-hexahydro-2H-5,9-epiminocycloocta[c]pyrazol-10-yl)(quinolin-6-yl)methanone]	0.017 µM
Cc1cc(C(=O)N2[C@@H]3CCC[C@H]2c2nn(C)c(-c4cc(C(F)(F)F)n(C)n4)c2C3)c2cc(F)ccc2n1 [Example 88, (6-Fluoro-2-methylquinolin-4-yl)((5R,9S)-2-methyl-3-(1-methyl-5-(trifluoromethyl)-1H-pyrazol-3-yl)-4,5,6,7,8,9-hexahydro-2H-5,9-epiminocycloocta[c]pyrazol-10-yl)methanone]	0.0066 µM
COc1cccc(C(=O)N2[C@@H]3CC[C@H]2c2nn(C)c(-c4cc(C(F)(F)F)nn4C)c2C3)c1C [Example 89, (3-Methoxy-2-methylphenyl)((5R,8S)-2-methyl-3-(1-methyl-3-(trifluoromethyl)-1H-pyrazol-5-yl)-2,4,5,6,7,8-hexahydro-5,8-epiminocyclohepta[c]pyrazol-9-yl)methanone]	0.066 µM

Other lines, results leading:

IC50	SMILES
1.23 µM	C[C@H]1c2nn(C)c(-c3cnn(-c4ccccn4)c3)c2CCN1C(=O)c1ccc2ncccc2c1 [Example 70, (S)-(2,7-Dimethyl-3-(1-(pyridin-2-yl)-1H-pyrazol-4-yl)-2,4,5,7-tetrahydro-6H-pyrazolo[3,4-c]pyridin-6-yl)(quinolin-6-yl)methanone]
7.3 µM	C[C@H]1c2nn(C)c(-c3ccnn3CC3CC3)c2CCN1C(=O)c1ccc2ncccc2c1 [Example 71, (S)-(3-(1-(Cyclopropylmethyl)-1H-pyrazol-5-yl)-2,7-dimethyl-2,4,5,7-tetrahydro-6H-pyrazolo[3,4-c]pyridin-6-yl)(quinolin-6-yl)methanone]
0.23 µM	Cc1ccc2c(F)c(C(=O)N3CCc4c(nn(C)c4-c4cc(C(F)(F)F)nn4C)[C@@H]3C)ccc2n1 [Example 90, (S)-(2,7-dimethyl-3-(1-methyl-3-(trifluoromethyl)-1H-pyrazol-5-yl)-2,4,5,7-tetrahydro-6H-pyrazolo[3,4-c]pyridin-6-yl)(5-fluoro-2-methylquinolin-6-yl)methanone]
0.21 µM	Cc1ccc2cc(C(=O)N3CCc4c(nn(C)c4-c4cc(C(F)(F)F)nn4C)[C@@H]3C)c(F)cc2n1 [Example 91, (S)-(2,7-Dimethyl-3-(1-methyl-3-(trifluoromethyl)-1H-pyrazol-5-yl)-2,4,5,7-tetrahydro-6H-pyrazolo[3,4-c]pyridin-6-yl)(7-fluoro-2-methylquinolin-6-yl)methanone]
0.38 µM	Cc1ccc2c(C)c(C(=O)N3CCc4c(nn(C)c4-c4cc(C(F)(F)F)nn4C)[C@@H]3C)ccc2n1 [Example 92, (S)-(2,7-Dimethyl-3-(1-methyl-3-(trifluoromethyl)-1H-pyrazol-5-yl)-2,4,5,7-tetrahydro-6H-pyrazolo[3,4-c]pyridin-6-yl)(2,5-dimethylquinolin-6-yl)methanone]
1.21 µM	Cc1ccc2cc(C(=O)N3CCc4c(nn(C)c4-c4cc(C(F)(F)F)nn4C)[C@@H]3C)c(C)cc2n1 [Example 93, (S)-(2,7-Dimethyl-3-(1-methyl-3-(trifluoromethyl)-1H-pyrazol-5-yl)-2,4,5,7-tetrahydro-6H-pyrazolo[3,4-c]pyridin-6-yl)(2,7-dimethylquinolin-6-yl)methanone]
0.039 µM	Cc1cc(C)c2cc(C(=O)N3CCc4c(nn(C)c4-c4cc(C(F)(F)F)nn4C)[C@@H]3C)ccc2n1 [Example 94, (S)-(2,7-Dimethyl-3-(1-methyl-3-(trifluoromethyl)-1H-pyrazol-5-yl)-2,4,5,7-tetrahydro-6H-pyrazolo[3,4-c]pyridin-6-yl)(2,4-dimethylquinolin-6-yl)methanone]
10 µM	COc1cc(C)nc2ccc(C(=O)N3CCc4c(nn(C)c4-c4cc(C(F)(F)F)nn4C)[C@@H]3C)cc12 [Example 95, (S)-(2,7-Dimethyl-3-(1-methyl-3-(trifluoromethyl)-1H-pyrazol-5-yl)-2,4,5,7-tetrahydro-6H-pyrazolo[3,4-c]pyridin-6-yl)(4-methoxy-2-methylquinolin-6-yl)methanone]
0.65 µM	Cc1ccc(C(=O)N2CCc3c(nn(C)c3-c3cc(C(F)(F)F)nn3C)[C@@H]2C)c(OC(F)(F)F)c1 [Example 110, (S)-(2,7-Dimethyl-3-(1-methyl-3-(trifluoromethyl)-1H-pyrazol-5-yl)-2,4,5,7-tetrahydro-6H-pyrazolo[3,4-c]pyridin-6-yl)(4-methyl-2-(trifluoromethoxy)phenyl)methanone]
0.086 µM	C[C@H]1c2nn(C)c(-c3cc(C(F)(F)F)nn3C)c2CCN1C(=O)c1cccc(OC(F)(F)F)c1F [Example 112, (S)-(2,7-Dimethyl-3-(1-methyl-3-(trifluoromethyl)-1H-pyrazol-5-yl)-2,4,5,7-tetrahydro-6H-pyrazolo[3,4-c]pyridin-6-yl)(2-fluoro-3-(trifluoromethoxy)phenyl)methanone]
9.9 µM	C[C@H]1c2nn(C)c(-c3cc(C(F)(F)F)nn3C)c2CCN1C(=O)c1ccc(OC(F)(F)F)cc1Cl [Example 113, (S)-(2-Chloro-4-(trifluoromethoxy)phenyl)(2,7-dimethyl-3-(1-methyl-3-(trifluoromethyl)-1H-pyrazol-5-yl)-2,4,5,7-tetrahydro-6H-pyrazolo[3,4-c]pyridin-6-yl)methanone]
0.16 µM	C[C@H]1c2nn(C)c(-c3cc(C(F)(F)F)n(C)n3)c2CCN1C(=O)c1cccc2cnn(C)c12 [Example 117, (S)-(2,7-Dimethyl-3-(1-methyl-5-(trifluoromethyl)-1H-pyrazol-3-yl)-2,4,5,7-tetrahydro-6H-pyrazolo[3,4-c]pyridin-6-yl)(1-methyl-1H-indazol-7-yl)methanone]
0.047 µM	C[C@H]1c2nn(C)c(-c3cc(C(F)(F)F)n(C)n3)c2CCN1C(=O)c1ccnc2c1cnn2C [Example 118, (S)-(2,7-Dimethyl-3-(1-methyl-5-(trifluoromethyl)-1H-pyrazol-3-yl)-2,4,5,7-tetrahydro-6H-pyrazolo[3,4-c]pyridin-6-yl)(1-methyl-1H-pyrazolo[3,4-b]pyridin-4-yl)methanone]
